Reference: ChEMBL document CHEMBL3880411, “Multikinase inhibitors for use in the treatment of cancer” (2009)

What was measured:
[1] = biological target: Tyrosine-protein kinase ABL1 (Homo sapiens) (UniProt P00519); test: Inhibition of human Abl assessed as remaining activity at 1 uM after 40 mins in presence of [gamma33P-ATP] by scintillation counting
[2] = Cytotoxicity against human MIAPaCa2 cells expressing K-ras G12C mutant assessed as reduction in cell viability after 96 hrs by CellTiter-Glo luminescence assay or methylene blue assay; format: functional, cell-based; details: MIA PaCa-2, 96 h
[3] = Cytotoxicity against human DLD1 cells expressing K-ras G13D mutant assessed as reduction in cell viability after 96 hrs by CellTiter-Glo luminescence assay or methylene blue assay; format: functional, cell-based; details: DLD-1, 96 h
[4] = Cytotoxicity against human SK-MEL-24 cells expressing B-RAF V600E mutant assessed as reduction in cell viability after 96 hrs by CellTiter-Glo luminescence assay or methylene blue assay; format: functional, cell-based; details: SK-MEL-24, 96 h
[5] = biological target: Tyrosine-protein kinase Lck (Homo sapiens) (UniProt P06239); test: Inhibition of human Lck assessed as remaining activity at 0.1 uM after 40 mins in presence of [gamma33P-ATP] by scintillation counting
[6] = biological target: Tyrosine-protein kinase Lyn (Homo sapiens) (UniProt P07948); test: Inhibition of human Lyn assessed as remaining activity at 1 uM after 40 mins in presence of [gamma33P-ATP] by scintillation counting
[7] = Cytotoxicity against human AU565 cells assessed as reduction in cell viability after 96 hrs by CellTiter-Glo luminescence assay or methylene blue assay; format: functional, cell-based; details: AU565, 96 h
[8] = Antiproliferative activity against human RL cells after 96 hrs by MTT assay; format: functional, cell-based
[9] = Cytotoxicity against human PANC1 cells expressing K-ras G12D mutant assessed as reduction in cell viability after 96 hrs by CellTiter-Glo luminescence assay or methylene blue assay; format: functional, cell-based; details: PANC-1, 96 h
[10] = Antiproliferative activity against human THP1 cells after 96 hrs by MTT assay; format: functional, cell-based; details: THP-1, 96 h

Sequence of Tyrosine-protein kinase Lck (Homo sapiens) (P06239 2-509 limits assumed): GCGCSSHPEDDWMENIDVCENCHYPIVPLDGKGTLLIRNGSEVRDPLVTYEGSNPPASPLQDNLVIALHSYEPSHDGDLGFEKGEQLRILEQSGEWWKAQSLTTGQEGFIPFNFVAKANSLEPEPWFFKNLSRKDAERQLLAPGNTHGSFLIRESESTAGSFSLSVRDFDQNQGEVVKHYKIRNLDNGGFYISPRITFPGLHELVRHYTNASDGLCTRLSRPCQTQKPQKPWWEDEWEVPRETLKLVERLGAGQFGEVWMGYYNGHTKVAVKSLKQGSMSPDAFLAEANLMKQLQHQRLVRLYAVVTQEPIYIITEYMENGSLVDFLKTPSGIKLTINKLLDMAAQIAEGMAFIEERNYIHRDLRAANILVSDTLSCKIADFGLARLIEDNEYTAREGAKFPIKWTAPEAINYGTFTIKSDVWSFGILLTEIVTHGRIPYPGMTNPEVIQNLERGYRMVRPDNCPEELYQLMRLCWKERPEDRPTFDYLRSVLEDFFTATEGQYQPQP
Sequence of Tyrosine-protein kinase Lyn (Homo sapiens) (P07948 2-512 limits assumed): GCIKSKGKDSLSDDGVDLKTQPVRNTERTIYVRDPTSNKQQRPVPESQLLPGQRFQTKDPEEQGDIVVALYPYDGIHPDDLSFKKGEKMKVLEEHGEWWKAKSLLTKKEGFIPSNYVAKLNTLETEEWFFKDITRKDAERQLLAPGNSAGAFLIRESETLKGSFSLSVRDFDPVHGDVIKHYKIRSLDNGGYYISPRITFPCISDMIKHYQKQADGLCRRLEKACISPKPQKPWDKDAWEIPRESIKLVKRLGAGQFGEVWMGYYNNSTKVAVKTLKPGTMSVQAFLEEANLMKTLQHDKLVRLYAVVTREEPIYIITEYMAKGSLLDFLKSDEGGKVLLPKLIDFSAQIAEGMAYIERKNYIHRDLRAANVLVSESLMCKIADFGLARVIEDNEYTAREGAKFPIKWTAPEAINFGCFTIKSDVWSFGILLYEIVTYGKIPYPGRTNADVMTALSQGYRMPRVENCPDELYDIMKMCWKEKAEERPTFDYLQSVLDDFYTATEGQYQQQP
Sequence of Tyrosine-protein kinase ABL1 (Homo sapiens) (P00519 whole entry): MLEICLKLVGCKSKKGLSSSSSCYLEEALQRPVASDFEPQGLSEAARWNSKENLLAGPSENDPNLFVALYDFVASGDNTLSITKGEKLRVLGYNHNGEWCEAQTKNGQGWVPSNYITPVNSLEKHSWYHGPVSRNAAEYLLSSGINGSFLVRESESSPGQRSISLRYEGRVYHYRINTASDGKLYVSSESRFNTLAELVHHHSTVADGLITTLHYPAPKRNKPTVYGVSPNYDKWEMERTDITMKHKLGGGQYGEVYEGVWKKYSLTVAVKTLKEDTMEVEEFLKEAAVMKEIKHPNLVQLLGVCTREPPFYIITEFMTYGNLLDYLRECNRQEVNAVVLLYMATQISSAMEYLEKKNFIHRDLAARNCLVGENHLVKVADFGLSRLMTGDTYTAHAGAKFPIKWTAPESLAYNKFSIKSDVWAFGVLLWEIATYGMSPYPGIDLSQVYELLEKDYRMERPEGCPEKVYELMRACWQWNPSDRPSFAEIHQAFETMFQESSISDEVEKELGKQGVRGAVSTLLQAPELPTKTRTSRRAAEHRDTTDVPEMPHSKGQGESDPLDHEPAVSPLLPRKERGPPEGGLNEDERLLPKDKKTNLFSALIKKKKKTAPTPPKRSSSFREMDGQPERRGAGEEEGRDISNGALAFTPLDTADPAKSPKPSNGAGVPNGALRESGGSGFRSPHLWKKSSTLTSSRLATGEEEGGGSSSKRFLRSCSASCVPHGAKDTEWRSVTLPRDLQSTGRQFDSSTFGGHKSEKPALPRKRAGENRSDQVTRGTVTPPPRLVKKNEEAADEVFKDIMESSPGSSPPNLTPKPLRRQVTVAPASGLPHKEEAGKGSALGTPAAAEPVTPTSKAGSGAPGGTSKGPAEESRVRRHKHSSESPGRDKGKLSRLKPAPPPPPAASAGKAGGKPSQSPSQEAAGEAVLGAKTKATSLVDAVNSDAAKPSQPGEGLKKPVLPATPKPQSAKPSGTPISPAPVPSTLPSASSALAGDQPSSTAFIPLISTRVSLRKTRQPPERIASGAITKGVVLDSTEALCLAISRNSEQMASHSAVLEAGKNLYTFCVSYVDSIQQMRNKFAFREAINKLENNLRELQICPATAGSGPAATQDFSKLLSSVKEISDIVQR

`CCNc1cc(O)c2c(c1)/C=C/C[C@H](O)[C@H](O)C(=O)/C=C\[C@@H](C)[C@H](C)OC2=O` [E-6201] gave an Activity [1] of 15%, an IC50 [2] of 734 nM and an IC50 [3] of 649 nM. It also gave an IC50 [4] of 66 nM, an Activity [5] of 27% and an Activity [6] of 2%. For the same compound, the IC50 [7] was > 10000 nM, the IC50 [8] was 1650 nM and the IC50 [9] was > 10000 nM. It also gave an IC50 [10] of 120 nM.
